Results from US8598339B2, “Withanolide isolated from Physalis longifolia and analogs and methods of use thereof” (University of Kansas, priority 2011, dated 2013).

Experiments:
[1] = system: melanoma cells B16F10; experiment: MTS cell viability assay, B16F10; type: cell-based; details: Mus musculus; for IC50: B16-F10, Table 5; for IC90: B16-F10, Table 6
Procedure: (§1) Human carcinoid cells, NCI-H727 (ATCC, Manassas, Va.), were cultured under standard conditions. Squamous cell carcinoma of head and neck cells, MDA1986 (Myers, et al. (2002) Clin. Cancer Res. 8:293) and JMAR (Swan, et al. (2003) Oral Oncol. 39:648-55); and melanoma cells lines B16F10 (ATCC, Manassas, Va.) and SKMEL28 (CLS, Eppelheim, Germany) were cultured in DMEM medium supplemented with 10% heat-inactivated fetal bovine serum (Sigma-Aldrich, St. Louis, Mo.), 1×MEM-essential amino acid, 1×MEM vitamin, and penicillin/streptomycin (Sigma-Aldrich, St. Louis, Mo.) in a humid environment of 5% CO2 at 37° C. Activity of withanolides against DRO81-1 and TT medullary thyroid cancer cells was also determined.
(§2) Cells were cultured in 96 well plates at a concentration of 1-2×10^4 cells/mL. Cell viability was assessed with the nonradioactive cell proliferation MTS assay using Cell Titer 96AQUEOUS One Solution Reagent (PROMEGA, Madison, Wis.), according to the manufacturer's instruction. After a 72-hour treatment, 20 μL of Cell Titer 96AQUEOUS One Solution Reagent were added to each well and incubated for 3 hours at 37° C. 5% CO2, and formazan absorbance was measured at 490 nm.

[2] = system: MRC-5; experiment: MTS cell viability assay, MRC-5; type: cell-based; details: Homo sapiens, MRC5, Table 5
[3] = system: human melanoma SKMEL28 cells; experiment: MTS cell viability assay, SKMEL28; type: cell-based; details: for IC90: SK-MEL-28, Table 6
Procedure: as §1, §2
A cell viability MTS assay was carried out to determine the anti-cancer effect of the withanolides on human melanoma SKMEL28 cells. Cells were treated for 72 hours and cell viability was determined according to the manufacturer's instruction.

[4] = system: squamous cell carcinoma of head and neck cells JMAR; experiment: MTS cell viability assay, JMAR; type: cell-based; details: for IC50: Table 5; for IC90: Table 6
Procedure: as §1, §2

[5] = system: squamous cell carcinoma of head and neck cells MDA1986; experiment: MTS cell viability assay, MDA1986; type: cell-based; details: for IC50: Table 5; for IC90: Table 6
Procedure: as §1, §2

[6] = system: Ames test strain TA1535; experiment: Ames test, TA1535; details: 3.0E−05 M
[7] = system: Ames test strain TA100; experiment: Ames test, TA100; details: 3.0E−05 M
[8] = system: Ames test strain TA98; experiment: Ames test, TA98; details: 3.0E−05 M
[9] = Homo sapiens, SK-MEL-28, Table 5
[10] = Table 3, treated for 72 hours, NA = no activity

Compound | IC50 [1] | IC50 [2] | IC50 [3, 9] | IC50 [4] | IC50 [5] | also measured
CC1=C(COC(=O)c2ccc(Cl)cc2)C(=O)O[C@@H]([C@@H](C)[C@H]2CC[C@H]3[C@@H]4C[C@H]5O[C@]56[C@@H](OC(=O)c5ccc(Cl)cc5)C=CC(=O)[C@]6(CO)[C@H]4CC[C@]23C)C1 [HFM-JA-398B] | 10 µM | 7.13 µM | > 25 µM | 10.6 µM | > 25 µM | 
CC1=C(CO)C(=O)O[C@@H]([C@@H](C)[C@H]2CC[C@H]3[C@@H]4C[C@H]5O[C@]56[C@@H](OC(=O)N(C)C)C=CC(=O)[C@]6(CO)[C@H]4CC[C@]23C)C1 [HFM-JA-403] | 0.28 µM | 0.69 µM | 2.31 µM | 0.55 µM | 2.48 µM | 
O=c1c(O)c(-c2ccc(O)c(O)c2)oc2cc(O)cc(O)c12 [Quercetin, reference compound] |  |  |  |  |  | Positive Significance (− to +++) ([6]; TA1535 +S9): −; Positive Significance (− to +++) ([6]; TA1535 −S9): −; Positive Significance (− to +++) ([7]; TA100 +S9): −; Positive Significance (− to +++) ([7]; TA100 −S9): −; Positive Significance (− to +++) ([8]; TA98 +S9): +++ (Very strong positive, if p < 0.001, denoted as “+++”.); Positive Significance (− to +++) ([8]; TA98 −S9): +++ (Very strong positive, if p < 0.001, denoted as “+++”.)
CC(=O)OC[C@]12C(=O)C=C[C@H](O)[C@]13O[C@@H]3C[C@H]1[C@@H]3CC[C@H]([C@H](C)[C@H]4CC(C)=C(CO)C(=O)O4)[C@@]3(C)CC[C@@H]12 [HFM-JA-336B] | 0.37 µM |  | 0.24 µM | 1.2 µM |  | IC90 [1]: 1.2 µM; IC90 ([3]; Homo sapiens): 1.16 µM; IC90 [4]: 3.1 µM; IC90 [5]: 1.2 µM
CC1=C(C)C(=O)O[C@@H]([C@@H](C)[C@H]2CC[C@H]3[C@@H]4C[C@H]5O[C@]56[C@@H](O)C=CC(=O)[C@]6(CO)[C@H]4CC[C@]23C)C1 [Compound X030B] | 0.2 µM | 0.4 µM | 3.91 µM | 0.17 µM | 1.3 µM | 
CC1=C(CO)C(=O)O[C@@H]([C@@H](C)[C@H]2CC[C@H]3[C@@H]4CC=C5C=CC(=O)[C@]5(C)[C@H]4CC[C@]23C)C1 [Compound X006] | 19.2 µM | > 25 µM | > 25 µM | 19.7 µM | > 25 µM | 
CC1=C(CO)C(=O)O[C@@H]([C@@H](C)[C@H]2CC[C@H]3[C@@H]4C[C@H]5O[C@]56[C@@H](OC(=O)c5ccc(Cl)cc5)C=CC(=O)[C@]6(CO)[C@H]4CC[C@]23C)C1 [HFM-JA-398H] | 2.35 µM | 5.29 µM | 3.45 µM | 2.61 µM | 6.05 µM | 
CC1=C(COC2OC(CO)C(OC3OC(C)C(O)C(O)C3O)C(O)C2O)C(=O)O[C@@H]([C@@H](C)[C@H]2CC[C@H]3[C@@H]4C[C@H]5O[C@]56[C@@H](O)C=CC(=O)[C@]6(C)[C@H]4CC[C@]23C)C1 (some centres unmarked) [Compound X011] | > 25 µM | 8.72 µM | 17.4 µM | 8.24 µM | 8.1 µM | 
CC1=C(CO)C(=O)O[C@@](C)([C@@H](C)[C@H]2CC[C@H]3[C@@H]4CC=C5C[C@@H](OC6OC(CO)C(O)C(O)C6O)CC(=O)[C@]5(CO)[C@H]4CC[C@]23C)C1 (some centres unmarked) [Compound X012] | 10.7 µM | > 25 µM | > 25 µM | > 25 µM | > 25 µM | 
CC(=O)OC[C@]12C(=O)C=C[C@H](OC(=O)c3ccc(Cl)cc3)[C@]13O[C@@H]3C[C@H]1[C@@H]3CC[C@H]([C@H](C)[C@H]4CC(C)=C(COC(=O)c5ccc(Cl)cc5)C(=O)O4)[C@@]3(C)CC[C@@H]12 [HFM-JA-400] | 9.04 µM | 10.8 µM | > 25 µM | > 25 µM | > 25 µM | 
CC1=C(COC2OC(CO)C(O)C(O)C2O)C[C@H]([C@@H](C)[C@H]2CC[C@H]3[C@@H]4C[C@H](O)c5cccc(O)c5[C@H]4CC[C@]23C)OC1=O (some centres unmarked) [Compound X015] | > 25 µM | > 25 µM | > 25 µM | > 25 µM | > 25 µM | 
CC1=C(CO)C(=O)OC(C(C)C2CCC3C4CC(O)C5(C=O)CCC(=O)C5(C)C4CCC23C)C1 (stereo not drawn) [Compound O010, 22R-5β-formyl-6β,27-dihydroxyl-1-oxo-4-norwith-24-enolide, reference compound] |  |  |  |  |  | IC50 [3, 10]: 17 µM
CC(=O)OCC1=C(C)C[C@H]([C@@H](C)[C@H]2CC[C@H]3[C@@H]4C[C@H]5O[C@]56[C@@H](O)C=CC(=O)[C@]6(COC(C)=O)[C@H]4CC[C@]23C)OC1=O [HFM-JA-336D] | 0.37 µM |  | 0.27 µM | 1.45 µM |  | IC90 [1]: 2.5 µM; IC90 ([3]; Homo sapiens): 0.42 µM; IC90 [4]: 7.1 µM; IC90 [5]: 2.5 µM
CC1=C(CO)C(=O)O[C@@H]([C@@H](C)[C@H]2CC[C@H]3[C@@H]4C[C@H]5O[C@]56[C@@H](O)[C@@H](O)CC(=O)[C@]6(C)[C@H]4CC[C@]23C)C1 [Viscosalactone B, reference compound] |  |  |  |  |  | IC50 [3, 10]: 18.9 µM
CC(=O)OCC1=C(C)C[C@H]([C@@H](C)[C@H]2CC[C@H]3[C@@H]4C[C@H]5O[C@]56[C@@H](O)C=CC(=O)[C@]6(CO)[C@H]4CC[C@]23C)OC1=O [HFM-JA-336A] | 0.28 µM |  | 0.58 µM | 3.6 µM |  | IC90 [1]: 2.7 µM; IC90 ([3]; Homo sapiens): 0.86 µM; IC90 [4]: 9.8 µM; IC90 [5]: 2.7 µM
C=CCNC1=C2C[C@@H](C)C[C@H](OC)[C@H](O)[C@@H](C)/C=C(\C)[C@H](OC(N)=O)[C@@H](OC)/C=C\C=C(/C)C(=O)NC(=CC1=O)C2=O [17 AAG, 17-allylamino-17-demethoxygeldanamycin, reference compound] |  |  |  |  |  | IC50 [3, 10]: 0.23 µM
CC(=O)O[C@H]1C=CC(=O)[C@]2(CO)[C@H]3CC[C@]4(C)[C@@H]([C@H](C)[C@H]5CC(C)=C(CO)C(=O)O5)CC[C@H]4[C@@H]3C[C@H]3O[C@]132 [HFM-JA-336C] | 0.69 µM |  | 0.57 µM | 2 µM |  | IC90 [1]: 2.5 µM; IC90 ([3]; Homo sapiens): 1.21 µM; IC90 [4]: 6.5 µM; IC90 [5]: 2.5 µM
CC1=C(COC2OC(CO)C(O)C(O)C2O)C[C@H]([C@@H](C)[C@H]2CC[C@H]3[C@@H]4CC=C5C[C@@H](O)C[C@H](O)[C@]5(CO)[C@H]4CC[C@]23C)OC1=O (some centres unmarked) [Compound X013] | > 25 µM | > 25 µM | > 25 µM | > 25 µM | > 25 µM | 
CC1=C(COC2OC(CO)C(O)C(O)C2O)C[C@H]([C@@H](C)[C@H]2CC[C@H]3[C@@H]4CC(=O)C5=C(CC[C@@H](O)C5)[C@H]4CC[C@]23C)OC1=O (some centres unmarked) [Compound X014] | > 25 µM | > 25 µM | > 25 µM | > 25 µM | > 25 µM | 
CC1=C(CO)C(=O)O[C@@H]([C@@H](C)[C@H]2CC[C@H]3[C@@H]4C[C@H]5O[C@]56[C@@H](OC(=O)CN(C)C)C=CC(=O)[C@]6(C)[C@H]4CC[C@]23C)C1 [Compound X036] | 4.37 µM | 3.69 µM | 2.35 µM | 3.53 µM | 1.59 µM | 
CC1=C(COC2OC(CO)C(O)C(O)C2O)C[C@H]([C@@H](C)[C@H]2CC[C@H]3[C@@H]4CCC5=C(C(=O)C[C@H](O)C5)[C@H]4CC[C@]23C)OC1=O (some centres unmarked) [Compound X026B] | 11 µM | 13.5 µM | > 25 µM | > 25 µM | > 25 µM | 
CO[C@H]1CC(=O)[C@]2(C)[C@@H]3[C@@H](C[C@H]4O[C@]42[C@H]1O)[C@@H]1CC[C@H]([C@H](C)[C@H]2CC(C)=C(CO)C(=O)O2)[C@@]1(C)C[C@@H]3O [Compound X007] | 5.57 µM | 7.33 µM | 11.6 µM | 12 µM | 8.34 µM | 
